Patent publication US20260295053A1, “COMPOUNDS FOR DEGRADATION AND INHIBITION OF KRAS (G12D) PROTEIN” (Shenzhen Ionova Life Science Co., Ltd., priority 2023, published 2026)

What was measured:
[1] = biological target: T1, KRAS (G12D) (Homo sapiens, UniProt P01116, G12D); assay: KRAS (G12D) cellular degradation assay in AsPC-1 cells; type: cell-based; details: 24 hours, antibody fluorescence (Odyssey CLX), DC50 half-maximal degradation concentration
T1 construct: in-cell western with KRAS G12D antibody after 24 h
T1 sequence (P01116 1-188 isoform P01116-2 G12D): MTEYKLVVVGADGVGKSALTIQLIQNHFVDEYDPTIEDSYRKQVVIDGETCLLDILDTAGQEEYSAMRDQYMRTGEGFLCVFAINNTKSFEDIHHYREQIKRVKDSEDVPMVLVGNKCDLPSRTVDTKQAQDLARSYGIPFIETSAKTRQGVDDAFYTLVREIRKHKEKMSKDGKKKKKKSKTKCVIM
Method in brief: (§1)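 Read-outs were KRAS G12D immunofluorescence against β-actin after 24 h (DC50) and CellTiter Glo luminescence after 6 days (IC50). Compounds were titrated 1:3 from […] to 1.5 nM final on AsPC-1 cells at 37 °C, 5% CO2.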

[2] = system: AsPC-1 cells; assay: AsPC-1 cell proliferation assay (CellTiter Glo); type: cell-based; details: 6 days
Method in brief: as §1

Row | Structure (SMILES) | DC50 [1] | IC50 [2] | IC50 ([2]; Homo sapiens, ASPC1, 144 h)
1 | CCn1nccc1-c1ccc([C@H](CO)NC(=O)[C@@H]2C[C@@H](O)CN2C(=O)[C@H](C(C)C)n2cc(-c3ccc(COc4c(-c5c(C)c(F)cc6[nH]ncc56)c(C5CC5)cc5c(N6CCNCC[C@H]6C)nc(OC[C@H](C)OC)nc45)cc3)nn2)cc1 [Example 178, (2S,4R)-1-((2S)-2-(4-(4-(((6-cyclopropyl-7-(6-fluoro-5-methyl-1H-indazol-4-yl)-2-((S)-2-methoxypropoxy)-4-((R)-7-methyl-1,4-diazepan-1-yl)quinazolin-8-yl)oxy)methyl)phenyl)-1H-1,2,3-triazol-1-yl)-3-methylbutanoyl)-N—((R)-1-(4-(1-ethyl-1H-pyrazol-5-yl)phenyl)-2-hydroxyethyl)-4-hydroxypyrrolidine-2-carboxamide] | < 10 nM | < 10 nM | –
2 | CO[C@@H](C)COc1nc(N2C[C@@H]3C[C@H]2CN3)c2cc(C3CC3)c(-c3c(C)c(F)cc4[nH]ncc34)c(OCc3ccc(-c4cn([C@H](C(=O)N5C[C@H](O)C[C@H]5C(=O)N[C@H](C#Cc5cccc(F)c5F)CO)C(C)C)nn4)cc3)c2n1 [Example 60, (2S,4R)-1-((2S)-2-(4-(4-(((4-((1S,4S)-2,5-diazabicyclo[2.2.1]heptan-2-yl)-6-cyclopropyl-7-(6-fluoro-5-methyl-1H-indazol-4-yl)-2-((S)-2-methoxypropoxy)quinazolin-8-yl)oxy)methyl)phenyl)-1H-1,2,3-triazol-1-yl)-3-methylbutanoyl)-N—((R)-4-(2,3-difluorophenyl)-1-hydroxybut-3-yn-2-yl)-4-hydroxypyrrolidine-2-carboxamide] | < 10 nM | – | < 10 nM
3 | CCn1nccc1-c1ccc([C@H](CO)NC(=O)[C@@H]2C[C@@H](O)CN2C(=O)[C@H](C(C)C)n2cc(-c3ccc(COc4c(-c5c(C)c(F)cc6[nH]ncc56)c(C5CC5)cc5c(N6C[C@@H]7C[C@H]6CN7)nc(OC6CCN(S(C)(=O)=O)CC6)nc45)cc3)nn2)cc1 [Example 38, (2S,4R)-1-((2S)-2-(4-(4-(((4-((1S,4S)-2,5-diazabicyclo[2.2.1]heptan-2-yl)-6-cyclopropyl-7-(6-fluoro-5-methyl-1H-indazol-4-yl)-2-((1-(methylsulfonyl)piperidin-4-yl)oxy)quinazolin-8-yl)oxy)methyl)phenyl)-1H-1,2,3-triazol-1-yl)-3-methylbutanoyl)-N—((R)-1-(4-(1-ethyl-1H-pyrazol-5-yl)phenyl)-2-hydroxyethyl)-4-hydroxypyrrolidine-2-carboxamide] | < 10 nM | – | < 10 nM
4 | CCn1nccc1-c1ccc([C@@H](NC(=O)[C@@H]2C[C@@H](O)CN2C(=O)[C@H](C(C)C)n2cc(-c3ccc(COc4c(-c5c(C)c(F)cc6[nH]ncc56)c(C5CC5)cc5c(N6C[C@@H]7C[C@H]6CN7)nc(OC[C@H](C)OC)nc45)cc3)nn2)C(C)O)cc1 (stereo in doubt) [Example 75, (2S,4R)-1-((2S)-2-(4-(4-(((4-((1S,4S)-2,5-diazabicyclo[2.2.1]heptan-2-yl)-6-cyclopropyl-7-(6-fluoro-5-methyl-1H-indazol-4-yl)-2-((S)-2-methoxypropoxy)quinazolin-8-yl)oxy)methyl)phenyl)-1H-1,2,3-triazol-1-yl)-3-methylbutanoyl)-N-((1R,2R)-1-(4-(1-ethyl-1H-pyrazol-5-yl)phenyl)-2-hydroxypropyl)-4-hydroxypyrrolidine-2-carboxamide] | < 10 nM | – | < 10 nM
5 | CCn1nccc1-c1ccc(CNC(=O)[C@@H]2C[C@@H](O)CN2C(=O)[C@H](C(C)C)n2cc(-c3ccc(COc4c(-c5c(C)c(F)cc6[nH]ncc56)c(C5CC5)cc5c(N6C[C@@H]7C[C@H]6CN7)nc(OC[C@H](C)OC)nc45)cc3)nn2)c2c1CC2 [Example 36, (2S,4R)-1-((2S)-2-(4-(4-(((4-((1S,4S)-2,5-diazabicyclo[2.2.1]heptan-2-yl)-6-cyclopropyl-7-(6-fluoro-5-methyl-1H-indazol-4-yl)-2-((S)-2-methoxypropoxy)quinazolin-8-yl)oxy)methyl)phenyl)-1H-1,2,3-triazol-1-yl)-3-methylbutanoyl)-N-((5-(1-ethyl-1H-pyrazol-5-yl)bicyclo[4.2.0]octa-1(6),2,4-trien-2-yl)methyl)-4-hydroxypyrrolidine-2-carboxamide] | 10 to 100 nM | – | 10 to 100 nM
6 | CCn1nccc1-c1ccc([C@@H](NC(=O)[C@@H]2C[C@@H](O)CN2C(=O)[C@H](C(C)C)n2cc(-c3ccc(COc4c(-c5c(C)c(F)cc6[nH]ncc56)c(C5CC5)cc5c(N(C)[C@H]6CCNC6)nc(OC[C@H](C)OC)nc45)cc3)nn2)[C@H](C)O)c2c1CC2 [Example 149, (2S,4R)-1-((2S)-2-(4-(4-(((6-cyclopropyl-7-(6-fluoro-5-methyl-1H-indazol-4-yl)-2-((S)-2-methoxypropoxy)-4-(methyl((S)-pyrrolidin-3-yl)amino)quinazolin-8-yl)oxy)methyl)phenyl)-1H-1,2,3-triazol-1-yl)-3-methylbutanoyl)-N-((1R,2S)-1-(5-(1-ethyl-1H-pyrazol-5-yl)bicyclo[4.2.0]octa-1(6),2,4-trien-2-yl)-2-hydroxypropyl)-4-hydroxypyrrolidine-2-carboxamide] | < 10 nM | – | < 10 nM
7 | CO[C@@H](C)COc1nc(N2C[C@H]3C[C@@H]2CN3)c2cc(C3CC3)c(-c3c(C)c(F)cc4[nH]ncc34)c(OCc3ccc(-c4cn([C@H](C(=O)N5C[C@H](O)C[C@H]5C(=O)N[C@@H](CO)c5ccc(-c6scnc6C)cc5)C(C)C)nn4)cc3)c2n1 (single isomer, unassigned) [Example 2B] | > 1000 nM | > 1000 nM | –
8 | CCn1nccc1-c1ccc([C@H](CO)NC(=O)[C@@H]2C[C@@H](O)CN2C(=O)[C@H](C(C)C)n2cc(-c3ccc(COc4c(-c5c(C)c(F)cc6[nH]ncc56)c(C5CC5)cc5c(N6C[C@@H]7C[C@H]6CN7)nc(OC6CCC7(CC6)COC7)nc45)cc3)nn2)cc1 [Example 43, (2S,4R)-1-((2S)-2-(4-(4-(((2-((2-oxaspiro[3.5]nonan-7-yl)oxy)-4-((1S,4S)-2,5-diazabicyclo[2.2.1]heptan-2-yl)-6-cyclopropyl-7-(6-fluoro-5-methyl-1H-indazol-4-yl)quinazolin-8-yl)oxy)methyl)phenyl)-1H-1,2,3-triazol-1-yl)-3-methylbutanoyl)-N—((R)-1-(4-(1-ethyl-1H-pyrazol-5-yl)phenyl)-2-hydroxyethyl)-4-hydroxypyrrolidine-2-carboxamide] | < 10 nM | – | < 10 nM
9 | CCn1nccc1-c1ccc([C@H](CO)NC(=O)[C@@H]2C[C@@H](O)CN2C(=O)[C@H](C(C)C)n2cc(-c3ccc(COc4c(-c5c(C)c(F)cc6[nH]ncc56)c(C5CC5)cc5c(N6CCCOCC6)nc(OC[C@H](C)OC)nc45)cc3)nn2)cc1 [Example 180, (2S,4R)-1-((2S)-2-(4-(4-(((6-cyclopropyl-7-(6-fluoro-5-methyl-1H-indazol-4-yl)-2-((S)-2-methoxypropoxy)-4-(1,4-oxazepan-4-yl)quinazolin-8-yl)oxy)methyl)phenyl)-1H-1,2,3-triazol-1-yl)-3-methylbutanoyl)-N—((R)-1-(4-(1-ethyl-1H-pyrazol-5-yl)phenyl)-2-hydroxyethyl)-4-hydroxypyrrolidine-2-carboxamide] | < 10 nM | – | < 10 nM
10 | CNc1nc2ccc(C#C[C@H](CO)NC(=O)[C@@H]3C[C@@H](O)CN3C(=O)[C@H](C(C)C)n3cc(-c4ccc(COc5c(-c6c(C)c(F)cc7[nH]ncc67)c(C6CC6)cc6c(N7C[C@@H]8C[C@H]7CN8)nc(OC[C@H](C)OC)nc56)cc4)nn3)cc2s1 [Example 176, (2S,4R)-1-((2S)-2-(4-(4-(((4-((1S,4S)-2,5-diazabicyclo[2.2.1]heptan-2-yl)-6-cyclopropyl-7-(6-fluoro-5-methyl-1H-indazol-4-yl)-2-((S)-2-methoxypropoxy)quinazolin-8-yl)oxy)methyl)phenyl)-1H-1,2,3-triazol-1-yl)-3-methylbutanoyl)-4-hydroxy-N—((R)-1-hydroxy-4-(2-(methylamino)benzo[d]thiazol-6-yl)but-3-yn-2-yl)pyrrolidine-2-carboxamide] | < 10 nM | – | < 10 nM
11 | CCn1nccc1C12CC(CNC(=O)[C@@H]3C[C@@H](O)CN3C(=O)[C@H](C(C)C)n3cc(-c4ccc(COc5c(-c6c(C)c(F)cc7[nH]ncc67)c(C6CC6)cc6c(N7C[C@@H]8C[C@H]7CN8)nc(OC[C@H](C)OC)nc56)cc4)nn3)(C1)C2 [Example 81, (2S,4R)-1-((2S)-2-(4-(4-(((4-((1S,4S)-2,5-diazabicyclo[2.2.1]heptan-2-yl)-6-cyclopropyl-7-(6-fluoro-5-methyl-1H-indazol-4-yl)-2-((S)-2-methoxypropoxy)quinazolin-8-yl)oxy)methyl)phenyl)-1H-1,2,3-triazol-1-yl)-3-methylbutanoyl)-N-((3-(1-ethyl-1H-pyrazol-5-yl)bicyclo[1.1.1]pentan-1-yl)methyl)-4-hydroxypyrrolidine-2-carboxamide] | 10 to 100 nM | – | 10 to 100 nM
12 | CO[C@@H](C)COc1nc(N2C[C@@H]3C[C@H]2CN3)c2cc(C3CC3)c(-c3c(C)c(F)cc4[nH]ncc34)c(OCc3ccc(-c4cn([C@H](C(=O)N5C[C@H](O)C[C@H]5C(=O)N[C@H](C#Cc5cccc6nn(C)cc56)CO)C(C)C)nn4)cc3)c2n1 [Example 116, (2S,4R)-1-((2S)-2-(4-(4-(((4-((1S,4S)-2,5-diazabicyclo[2.2.1]heptan-2-yl)-6-cyclopropyl-7-(6-fluoro-5-methyl-1H-indazol-4-yl)-2-((S)-2-methoxypropoxy)quinazolin-8-yl)oxy)methyl)phenyl)-1H-1,2,3-triazol-1-yl)-3-methylbutanoyl)-4-hydroxy-N—((R)-1-hydroxy-4-(2-methyl-2H-indazol-4-yl)but-3-yn-2-yl)pyrrolidine-2-carboxamide] | < 10 nM | – | < 10 nM
